These results are taken from patent publication US20160002247A1, “8-SUBSTITUTED IMIDAZOPYRIMIDINONE DERIVATIVE HAVING AUTOTAXIN INHIBITORY ACTIVITY” (THE UNIVERSITY OF TOKYO, priority 2013, published 2016).

SMILES strings stand for the structures. Like-named read-outs stand apart in the source and are kept apart here.

The assay has as its target T1, Human autotaxin enzyme (Homo sapiens, UniProt Q13822).
T1 construct: purchased R&D System
As to the kind of experiment: Evaluation of autotaxin inhibitor, Method C (Test Example 3): 18:0 Lyso PC, choline assay, Resorufin fluorescence. The settings on record: human autotaxin, 18:0 Lyso PC substrate. The format is biochemical. In outline: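 Human autotaxin in Tris-HCl pH 7.5, 150 mM NaCl, 5 mM MgCl2, 0.05% Triton X-100 reacted 2 h at room temperature with 18:0 Lyso PC (200 μM solution added). Released choline detected via choline oxidase/peroxidase/Amplex-type reagent, resorufin fluorescence (ex 531/em 598 nm); inhibition vs no-compound and no-enzyme controls, concentration-response curve.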

[1] abbreviates: Assay Method C (Test Example 3), read-out: Inhibitory Activity (autotaxin enzyme inhibitory activity, IC50 class).
Setting [2] is: Assay Method C, read-out: Inhibitory Activity.

In the case of `CCCCCn1c(-c2ccc(C(=O)Nc3ccccc3)cc2)cc(=O)n2cc(-c3ccc(Cl)cc3)nc12` [Compound 469], the IC50 under setting [1] is 10 to 100 nM. For the compound `CCCCCn1c(OC2CCN(CC(=O)N3CCOCC3)CC2)cc(=O)n2cc(-c3ccc(Cl)cc3)nc12` [Compound 548], the IC50 under setting [1] was 100 to 1000 nM.

In the case of `CCCCCn1c(N2CCCC[C@@H]2C)cc(=O)n2cc(-c3ccc(Cl)cc3)nc12` [Compound 808], the IC50 under setting [2] was above 1000 nM. As for `CCCCCn1c(N2CCC[C@H]2C(=O)NC2(C(=O)OC)CC2)cc(=O)n2cc(-c3ccc(Cl)cc3)nc12` [Compound 693], the IC50 under setting [1] was 10 to 100 nM.

In the case of `CCCCCn1c(N2CCCCC2CC)cc(=O)n2cc(-c3ccc(Cl)cc3)nc12` (centres unmarked) [Compound 802], the IC50 under setting [2] is above 1000 nM. As to `CCCCCn1c(-c2ccc(C(=O)OC)cc2)cc(=O)n2cc(-c3ccc(Cl)cc3)nc12` [Compound 529], the IC50 under setting [1] was in the range of 100 to 1000 nM. On the same count and under the same terms, under `CCCCCn1c(-c2ccc(C(=O)NC)cc2)cc(=O)n2cc(-c3ccc(Cl)cc3)nc12` [Compound 495] stands 10 to 100 nM; under `CCCCCn1c(OC2CCN(CCN3CCOCC3)CC2)cc(=O)n2cc(-c3ccc(Cl)cc3)nc12` [Compound 542], 100 to 1000 nM.

On to `CCCCCn1c(-c2ccc(C(=O)N(C)CCO)cc2)cc(=O)n2cc(-c3ccc(Cl)cc3)nc12` [Compound 476], for which the IC50 under setting [1] fell in the range of 10 to 100 nM. Same read-out and setting: in the case of `CCCCCn1c(N2CCC[C@H]2C(=O)NC(CO)C(=O)OC)cc(=O)n2cc(-c3ccc(Cl)cc3)nc12` (some centres unmarked) [Compound 686] it was 10 to 100 nM; in that of `CCCCCn1c(N2CCC3CN(C(=O)OC(C)(C)C)CC32)cc(=O)n2cc(-c3ccc(Cl)cc3)nc12` (centres unmarked) [Compound 312], 10 to 100 nM. As for `CCCCCn1c(N2CCC[C@H]2C(=O)NCCOCCN2C(=O)C=CC2=O)cc(=O)n2cc(-c3ccc(Cl)cc3)nc12` [Compound 668], the IC50 under setting [1] fell in the range of 100 to 1000 nM. Consider `O=C(Cc1cn(CCCC(F)(F)F)c2nc(-c3ccc(Cl)cc3)cn2c1=O)NCC(O)CO` (centres unmarked) [Compound 844], for which the IC50 under setting [2] was above 1000 nM.

Consider `CCCCCn1c(N2CCCC(CO)C2)cc(=O)n2cc(-c3ccc(Cl)cc3)nc12` (centres unmarked) [Compound 301], for which, under setting [1], the IC50 is 100 to 1000 nM.

Regarding `CCCCCn1c(N2CCC[C@H]2C(=O)N2CCO[C@H](C(=O)O)C2)cc(=O)n2cc(-c3ccc(Cl)cc3)nc12` [Compound 680], the IC50 under setting [1] was 10 to 100 nM. For the compound `CC(C)(O)CNC(=O)Cc1cn(CCCC(F)(F)F)c2nc(-c3ccc(Cl)cc3)cn2c1=O` [Compound 857], the IC50 under setting [2] was above 1000 nM.

Take `CCCCCn1c(-c2cccc(C(=O)NCCN(C)C)c2)cc(=O)n2cc(-c3ccc(Cl)cc3)nc12` [Compound 439]: the IC50 under setting [1] was in the range of 10 to 100 nM.

Consider `CCCCCn1c(N2CCC[C@H]2C(=O)NCCCNC)cc(=O)n2cc(-c3ccc(Cl)cc3)nc12` [Compound 661], for which the IC50 under setting [1] was above 1000 nM. For the compound `CCCCCn1c(-c2cccc(S(=O)(=O)N3CCOCC3)c2)cc(=O)n2cc(-c3ccc(Cl)cc3)nc12` [Compound 452], the IC50 under setting [1] lay in the range of 10 to 100 nM. On the same count and under the same terms, in the case of `CCCCCn1c(N2CCC[C@H]2C(=O)N[C@@H](CCCC)C(=O)O)cc(=O)n2cc(-c3ccc(Cl)cc3)nc12` [Compound 728] it was below 10 nM.

Turning to `CCCCCn1c(N2CCC[C@H]2C(=O)Nc2ccc(Oc3nn[nH]n3)cc2)cc(=O)n2cc(-c3ccc(Cl)cc3)nc12` [Compound 796], the IC50 under setting [2] was in the range of 100 to 1000 nM. As to `CCCCCn1c(N(C)C(C)=O)cc(=O)n2cc(-c3ccc(Cl)cc3)nc12` [Compound 361], the IC50 under setting [1] was above 1000 nM. Same read-out and setting: in the case of `CCCCCn1c(-c2ccc(C(=O)NCc3ccco3)cc2)cc(=O)n2cc(-c3ccc(Cl)cc3)nc12` [Compound 506] it was 10 to 100 nM; in that of `CCCCCn1c(-c2ccc(C(=O)N3C[C@@H]4COC(=O)[C@@H]4C3)cc2)cc(=O)n2cc(-c3ccc(Cl)cc3)nc12` [Compound 503], 10 to 100 nM; in that of `CCCCCn1c(N2CCC[C@H]2C(=O)N2CCNC(=O)C2)cc(=O)n2cc(-c3ccc(Cl)cc3)nc12` [Compound 697], 10 to 100 nM.

Regarding `O=C(NCCN1CCOCC1)c1ccc(-c2cc(=O)n3cc(-c4ccc(Cl)cc4)nc3n2CCCC(F)(F)F)cc1` [Compound 383], the IC50 under setting [1] was in the range of 10 to 100 nM. Regarding `CCCCCn1c(N2CC(C)CC(C)C2)cc(=O)n2cc(-c3ccc(Cl)cc3)nc12` (centres unmarked) [Compound 303], the IC50 under setting [1] was above 1000 nM. Regarding `CCCCCn1c(NC2(C(=O)NCCC(=O)O)CC2)cc(=O)n2cc(-c3ccc(Cl)cc3)nc12` [Compound 625], the IC50 under setting [1] was in the range of 100 to 1000 nM. Regarding `CCCCCn1c(N2CCC[C@H]2C(=O)N[C@H]2CNC(=O)C2)cc(=O)n2cc(-c3ccc(Cl)cc3)nc12` [Compound 712], under setting [1], the IC50 was 100 to 1000 nM.

For the compound `CCCCCn1c(N2CCC[C@H]2C(=O)NCCN2CCOCC2)cc(=O)n2cc(-c3ccc(Cl)cc3)nc12` [Compound 644], under setting [1], the IC50 is 100 to 1000 nM.

For `CCCCCn1c(N2CCC[C@H]2C(=O)NCCCN2CCCC2)cc(=O)n2cc(-c3ccc(Cl)cc3)nc12` [Compound 648], the IC50 under setting [1] was above 1000 nM. Regarding `CCCCCn1c(N2CCC[C@H]2C(=O)Nc2ccc(-c3nn[nH]n3)cc2)cc(=O)n2cc(-c3ccc(Cl)cc3)nc12` [Compound 784], under setting [2], the IC50 lay within 100 to 1000 nM. In the case of `CCCCCn1c(N2CCC[C@H]2C(=O)N2CCCC2C(=O)O)cc(=O)n2cc(-c3ccc(Cl)cc3)nc12` (some centres unmarked) [Compound 349], the IC50 under setting [1] was below 10 nM. On to `CCCCCn1c(C)cc(=O)n2cc(C3CCC(C(F)(F)F)CC3)nc12` (centres unmarked) [Compound 137], for which the IC50 under setting [1] lay in the range of 100 to 1000 nM.

On to `CCCCCn1c(N2CCC[C@H]2C(=O)N[C@H](C(=O)O)c2ccccc2)cc(=O)n2cc(-c3ccc(Cl)cc3)nc12` [Compound 732], for which the IC50 under setting [1] was below 10 nM. In the case of `CCCCCn1c(-c2cnc(C(=O)NCCN3CC4(COC4)C3)nc2)cc(=O)n2cc(-c3ccc(Cl)cc3)nc12` [Compound 535], the IC50 under setting [1] is below 10 nM. Consider `CCCCCn1c(N(CCCC(=O)OCC)C(C)=O)cc(=O)n2cc(-c3ccc(Cl)cc3)nc12` [Compound 564], for which the IC50 under setting [1] was 10 to 100 nM. Still for that read-out and setting: under `O=C(NCCN1CC2(COC2)C1)c1ccc(-c2cc(=O)n3cc([C@H]4CC[C@H](C(F)(F)F)CC4)nc3n2CCCC(F)(F)F)cc1` [Compound 165] stands 10 to 100 nM; under `CCCCCn1c(C2=CCN(C(=O)OC(C)(C)C)CC2)cc(=O)n2cc(-c3ccc(Cl)cc3)nc12` [Compound 541], 100 to 1000 nM; under `CCCCCn1c(-c2ccc(C(=O)NCc3ncc[nH]3)cc2)cc(=O)n2cc(-c3ccc(Cl)cc3)nc12` [Compound 525], 10 to 100 nM. On the same count and under the same terms, under `CCCCCn1c(OC2CCNCC2)cc(=O)n2cc(-c3ccc(Cl)cc3)nc12` [Compound 538] stands 100 to 1000 nM; under `CCCCCn1c(N2C[C@H](O)C[C@H]2C(=O)NCCC(=O)O)cc(=O)n2cc(-c3ccc(Cl)cc3)nc12` [Compound 581], below 10 nM; under `CCCCCn1c(OC2CCN(CC(=O)O)CC2)cc(=O)n2cc(-c3ccc(Cl)cc3)nc12` [Compound 540], 10 to 100 nM. The same measure, in the same setting: under `CCCCCn1c(-c2ccc(C#N)nc2)cc(=O)n2cc(-c3ccc(Cl)cc3)nc12` [Compound 462] stands 10 to 100 nM; under `CCCCCn1c(-c2ccc(C(=O)NCCN3CCSCC3)cc2)cc(=O)n2cc(-c3ccc(Cl)cc3)nc12` [Compound 515], 10 to 100 nM.

Take `CCCCCn1c(N2CCC[C@H]2C(=O)N2CCCC(C(N)=O)C2)cc(=O)n2cc(-c3ccc(Cl)cc3)nc12` (some centres unmarked) [Compound 695]: the IC50 under setting [1] was in the range of 100 to 1000 nM. On the same count and under the same terms, in the case of `CCCCCn1c(N2CCC[C@H]2C(=O)N[C@H](C)C(=O)OC)cc(=O)n2cc(-c3ccc(Cl)cc3)nc12` [Compound 692] it was 10 to 100 nM; in that of `O=C(O)[C@H](CCc1ccccc1)NC(=O)[C@@H]1C[C@@H](O)CN1c1cc(=O)n2cc(-c3ccc(Cl)cc3)nc2n1Cc1ccccc1` [Compound 751], below 10 nM. For the compound `CCCCCn1c(N2CCC[C@H]2C(=O)Nc2nn[nH]n2)cc(=O)n2cc(-c3ccc(Cl)cc3)nc12` [Compound 783], the IC50 under setting [2] was 10 to 100 nM. Regarding `CCCCCn1c(N2CCC[C@H]2C(=O)NCc2c[nH]nn2)cc(=O)n2cc(-c3ccc(Cl)cc3)nc12` [Compound 790], under setting [2], the IC50 was below 10 nM.

Turning to `CCCCCn1c(N2CCC[C@H]2CO)cc(=O)n2cc(-c3ccc(Cl)cc3)nc12` [Compound 304], the IC50 under setting [1] lay in the range of 100 to 1000 nM. Still for that read-out and setting: under `CCCCCn1c(C)c(CCO)c(=O)n2cc(-c3ccc(Cl)cc3)nc12` [Compound 207] stands 10 to 100 nM; under `CCCCCn1c(-c2ccc(C(=O)NCC3CC3)cc2)cc(=O)n2cc(-c3ccc(Cl)cc3)nc12` [Compound 483], 10 to 100 nM.

For `CCCCCn1c(N2CCCCC2CCO)cc(=O)n2cc(-c3ccc(Cl)cc3)nc12` (centres unmarked) [Compound 302], under setting [1], the IC50 fell in the range of 10 to 100 nM. On the same count and under the same terms, under `CCCCCn1c(N2CCNC(C(=O)NCC(=O)O)C2)cc(=O)n2cc(-c3ccc(Cl)cc3)nc12` (centres unmarked) [Compound 665] stands 10 to 100 nM.

As for `CCCCCn1c(N2CCCCC2CNC(=O)OC(C)(C)C)cc(=O)n2cc(-c3ccc(Cl)cc3)nc12` (centres unmarked) [Compound 806], under setting [2], the IC50 was above 1000 nM. As to `CCCCCn1c(N2CCC[C@H]2C(=O)NC2(CC(=O)OC)CCOCC2)cc(=O)n2cc(-c3ccc(Cl)cc3)nc12` [Compound 347], under setting [1], the IC50 was in the range of 10 to 100 nM. On to `CCCCCn1c(-c2ccc(OCCO)c(S(N)(=O)=O)c2)cc(=O)n2cc(-c3ccc(Cl)cc3)nc12` [Compound 451], for which the IC50 under setting [1] lay in the range of 10 to 100 nM. Turning to `CCCCCn1c(N2CCC[C@H]2C(=O)Nc2ccc(O)c(OC)c2)cc(=O)n2cc(-c3ccc(Cl)cc3)nc12` [Compound 793], the IC50 under setting [2] is 100 to 1000 nM. With `CCCCCn1c(N2CCC[C@H]2C(=O)NCCCCN2CC(C)OC(C)C2)cc(=O)n2cc(-c3ccc(Cl)cc3)nc12` (some centres unmarked) [Compound 657], under setting [1], the IC50 was below 10 nM. For `CCCCCn1c(-c2ccc(C(=O)NCCCn3ccnc3)cc2)cc(=O)n2cc(-c3ccc(Cl)cc3)nc12` [Compound 505], the IC50 under setting [1] is below 10 nM. Take `Cn1c(N2CCC[C@H]2C(=O)NC(C)(C)C(=O)O)cc(=O)n2cc(-c3ccc(Cl)cc3)nc12` [Compound 780]: under setting [2], the IC50 fell in the range of 100 to 1000 nM.
